Laboratory results: patent US8440652B2, “MST1 kinase inhibitors and methods of their use” (Lexicon Pharmaceuticals, Inc., priority 2011, dated 2013)
Like-named read-outs stand apart in the source and are kept apart here.

Target: T1, MST1 (Homo sapiens, UniProt Q13043)
T1 sequence (Q13043 1-487): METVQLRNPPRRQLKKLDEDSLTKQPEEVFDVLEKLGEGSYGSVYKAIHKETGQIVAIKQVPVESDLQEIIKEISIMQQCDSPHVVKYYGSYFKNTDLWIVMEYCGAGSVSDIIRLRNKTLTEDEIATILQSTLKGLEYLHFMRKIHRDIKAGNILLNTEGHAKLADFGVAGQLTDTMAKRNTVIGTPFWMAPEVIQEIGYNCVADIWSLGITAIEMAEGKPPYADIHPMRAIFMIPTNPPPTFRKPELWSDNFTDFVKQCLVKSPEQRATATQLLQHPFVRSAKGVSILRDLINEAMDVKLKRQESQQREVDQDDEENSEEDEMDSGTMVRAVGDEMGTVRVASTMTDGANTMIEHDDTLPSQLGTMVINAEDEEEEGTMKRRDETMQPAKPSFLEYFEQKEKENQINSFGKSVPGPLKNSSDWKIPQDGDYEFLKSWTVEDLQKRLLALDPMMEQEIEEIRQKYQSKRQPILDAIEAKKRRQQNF
Assay: In vitro measurement of MST1 inhibition (Z′-Lyte kinase assay)
Assay type: biochemical

[1] = 1 μM ATP, read-out: IC50 (μM) 1 μM ATP
[2] = 50 μM ATP, read-out: IC50 (μM) 50 μM ATP

Row | Structure (SMILES) | IC50 [1] | IC50 [2]
1 | N#Cc1ccc(-c2cnc(N)c(-c3ccc4c(c3)CCNC4=O)n2)cc1 [4-(5-amino-6-(1-oxo-1,2,3,4-tetrahydroisoquinolin-6-yl)pyrazin-2-yl)benzonitrile] | < 0.05 µM | < 0.01 µM
2 | CCN(C)S(=O)(=O)c1ccc(-c2cnc(N)c(-c3ccc4c(c3)CCNC4=O)n2)cc1Cl [4-(5-amino-6-(1-oxo-1,2,3,4-tetrahydroisoquinolin-6-yl)pyrazin-2-yl)-2-chloro-N-ethyl-N-methylbenzenesulfonamide] | < 0.01 µM | < 0.01 µM
3 | CC1(C)CNC(=O)c2ccc(-c3nc(-c4ccc(C5(C#N)CCOCC5)cc4)cnc3N)cc21 [4-(4-(5-amino-6-(4,4-dimethyl-1-oxo-1,2,3,4-tetrahydroisoquinolin-6-yl)pyrazin-2-yl)phenyl)tetrahydro-2H-pyran-4-carbonitrile] | < 0.01 µM | < 0.01 µM
4 | N#CC1(c2ccc(-c3cnc(N)c(-c4ccc5c(c4)C4(CC4)NC5=O)n3)cc2)CC1 [1-(4-(5-amino-6-(3′-oxospiro[cyclopropane-1,1′-isoindolin]-6′-yl)pyrazin-2-yl)phenyl)cyclopropanecarbonitrile] | < 0.05 µM | < 0.01 µM
5 | CN(C1CC1)S(=O)(=O)c1ccc(-c2cnc(N)c(-c3ccc4c(=O)[nH]ccc4c3)c2)cc1 [4-(6-amino-5-(1-oxo-1,2-dihydroisoquinolin-6-yl)pyridin-3-yl)-N-cyclopropyl-N-methylbenzenesulfonamide] | < 0.01 µM | < 0.01 µM
6 | [2H]C1([2H])CNC(=O)c2ccc(-c3nc(-c4ccc(S(=O)(=O)NC5CC5)cc4)cnc3N)cc21 [4-(5-amino-6-(4,4-dideutero-1-oxo-1,2,3,4-tetrahydroisoquinolin-6-yl)pyrazin-2-yl)-N-cyclopropylbenzenesulfonamide] | < 0.01 µM | < 0.01 µM
7 | NC(=O)c1ccc(-c2cc(-c3ccc(-n4ccnc4)cc3)cnc2N)cc1 [4-(5-(4-(1H-imidazol-1-yl)phenyl)-2-aminopyridin-3-yl)benzamide] | – | < 0.15 µM
8 | CC1(C)NC(=O)c2ccc(-c3nc(-c4ccc(S(=O)(=O)NC5CC5)cc4)cnc3N)cc21 [4-(5-amino-6-(3,3-dimethyl-1-oxoisoindolin-5-yl)pyrazin-2-yl)-N-cyclopropylbenzenesulfonamide] | < 0.05 µM | < 0.01 µM
9 | CN(C1CC1)S(=O)(=O)c1ccc(-c2cnc(N)c(-c3ccc4c(O)ncc(Br)c4c3)n2)cc1 [4-(5-amino-6-(4-bromo-1-hydroxyisoquinolin-6-yl)pyrazin-2-yl)-N-cyclopropyl-N-methylbenzenesulfonamide] | < 0.01 µM | < 0.01 µM
10 | CN(C1CC1)S(=O)(=O)c1ccc(-c2cnc(N)c(C3=CCN(C(=O)CC#N)CC3)c2)cc1 [4-(2-amino-1′-(2-cyanoacetyl)-1′,2′,3′,6′-tetrahydro-[3,4′-bipyridin]-5-yl)-N-cyclopropyl-N-methylbenzenesulfonamide] | < 0.15 µM | < 0.15 µM
11 | CCCN(C)S(=O)(=O)c1ccc(-c2cnc(N)c(-c3ccc4c(c3)CCNC4=O)n2)cc1Cl [4-(5-amino-6-(1-oxo-1,2,3,4-tetrahydroisoquinolin-6-yl)pyrazin-2-yl)-2-chloro-N-methyl-N-propylbenzenesulfonamide] | < 0.01 µM | < 0.01 µM
12 | N#CC1(c2ccc(-c3cnc(N)c(-c4ccc5c(c4)NCCNC5=O)n3)cc2)CCOCC1 [4-(4-(5-amino-6-(5-oxo-2,3,4,5-tetrahydro-1H-benzo[e][1,4]diazepin-8-yl)pyrazin-2-yl)phenyl)tetrahydro-2H-pyran-4-carbonitrile] | < 0.05 µM | < 0.01 µM
13 | NC(=O)c1ccc(-c2cc(-c3ccc(C(=O)c4ccccc4)cc3)cnc2N)cc1 [4-(2-amino-5-(4-benzoylphenyl)pyridin-3-yl)benzamide] | – | < 0.15 µM
14 | CNS(=O)(=O)c1ccc(-c2cnc(N)c(-c3ccc(C(N)=O)cc3)c2)cc1 [4-(2-amino-5-(4-(N-methylsulfamoyl)phenyl)pyridin-3-yl)benzamide] | – | < 0.15 µM
15 | [2H]C([2H])([2H])N(C([2H])([2H])[2H])S(=O)(=O)c1ccc(-c2cnc(N)c(-c3ccc4c(c3)CCNC4=O)n2)cc1 [4-(5-amino-6-(1-oxo-1,2,3,4-tetrahydroisoquinolin-6-yl)pyrazin-2-yl)-N,N-di(trideuteromethyl)benzenesulfonamide] | < 0.01 µM | < 0.01 µM
16 | CCN(CC)S(=O)(=O)c1ccc(-c2cnc(N)c(-c3ccc(C(N)=O)cn3)c2)cc1 [2′-amino-5′-(4-(N,N-diethylsulfamoyl)phenyl)-[2,3′-bipyridine]-5-carboxamide] | < 0.05 µM | < 0.01 µM
17 | CC1(C)CNC(=O)c2ccc(-c3cc(-c4ccc(S(=O)(=O)NC5CC5)cc4)cnc3N)cc21 [4-(6-amino-5-(4,4-dimethyl-1-oxo-1,2,3,4-tetrahydroisoquinolin-6-yl)pyridin-3-yl)-N-cyclopropylbenzenesulfonamide] | < 0.01 µM | < 0.01 µM
18 | CC(C)(Oc1ccc(-c2cnc(N)c(-c3ccc4c(c3)CCNC4=O)n2)cc1)C(N)=O [2-(4-(5-amino-6-(1-oxo-1,2,3,4-tetrahydroisoquinolin-6-yl)pyrazin-2-yl)phenoxy)-2-methylpropanamide] | < 0.05 µM | < 0.01 µM
19 | CCN(C1CC1)S(=O)(=O)c1ccc(-c2cnc(N)c(-c3ccc4c(c3)CCNC4=O)n2)cc1 [4-(5-amino-6-(1-oxo-1,2,3,4-tetrahydroisoquinolin-6-yl)pyrazin-2-yl)-N-cyclopropyl-N-ethylbenzenesulfonamide] | < 0.05 µM | < 0.01 µM
20 | Nc1ncc(-c2ccc(S(=O)(=O)NC3CCC3)cc2)cc1-c1ccc2c(c1)CCNC2=O [4-(6-amino-5-(1-oxo-1,2,3,4-tetrahydroisoquinolin-6-yl)pyridin-3-yl)-N-cyclobutylbenzenesulfonamide] | < 0.01 µM | < 0.01 µM
21 | CN(CC(F)F)S(=O)(=O)c1ccc(-c2cnc(N)c(-c3ccc4c(c3)CCNC4=O)n2)cc1 [4-(5-amino-6-(1-oxo-1,2,3,4-tetrahydroisoquinolin-6-yl)pyrazin-2-yl)-N-(2,2-difluoroethyl)-N-methylbenzenesulfonamide] | < 0.05 µM | < 0.01 µM
22 | CCN(CC)S(=O)(=O)c1ccc(-c2cnc(N)c(-c3ccc4c(c3)CCCC(=O)N4)c2)cc1 [4-(6-amino-5-(2-oxo-2,3,4,5-tetrahydro-1H-benzo[b]azepin-7-yl)pyridin-3-yl)-N,N-diethylbenzenesulfonamide] | – | < 0.15 µM

Other lines, results leading:

Row | IC50 [1] | IC50 [2] | Structure (SMILES)
23 | < 0.01 µM | < 0.01 µM | CCN(C)S(=O)(=O)c1ccc(-c2cnc(N)c(-c3ccc4c(c3)CCNC4=O)c2)nc1 [6′-amino-N-ethyl-N-methyl-5′-(1-oxo-1,2,3,4-tetrahydroisoquinolin-6-yl)-[2,3′-bipyridine]-5-sulfonamide]
24 | < 0.01 µM | < 0.01 µM | [2H]C([2H])([2H])N(C1CC1)S(=O)(=O)c1ccc(-c2cnc(N)c(-c3ccc4c(c3)CCNC4=O)n2)nc1 [6-(5-amino-6-(1-oxo-1,2,3,4-tetrahydroisoquinolin-6-yl)pyrazin-2-yl)-N-cyclopropyl-N-trideuteromethylpyridine-3-sulfonamide]
25 | < 0.05 µM | < 0.01 µM | CCNS(=O)(=O)c1ccc(-c2cnc(N)c(-c3ccc4c(c3)CCC/C4=N\O)c2)cc1 [(E)-4-(6-amino-5-(5-(hydroxyimino)-5,6,7,8-tetrahydronaphthalen-2-yl)pyridin-3-yl)-N-ethylbenzenesulfonamide]
26 | < 0.01 µM | < 0.01 µM | CCCN(C)S(=O)(=O)c1ccc(-c2cnc(N)c(-c3ccc4c(c3)CCNC4=O)c2)nc1 [6′-amino-N-methyl-5′-(1-oxo-1,2,3,4-tetrahydroisoquinolin-6-yl)-N-propyl-[2,3′-bipyridine]-5-sulfonamide]
27 | < 0.05 µM | < 0.01 µM | C[C@H]1COc2cc(-c3cc(-c4ccc(S(=O)(=O)N(C)C5CC5)cc4)cnc3N)ccc2C(=O)N1 [(S)-4-(6-amino-5-(3-methyl-5-oxo-2,3,4,5-tetrahydrobenzo[f][1,4]oxazepin-8-yl)pyridin-3-yl)-N-cyclopropyl-N-methylbenzenesulfonamide]
28 | < 0.15 µM | < 0.05 µM | Nc1ncc(-c2ccc(C(=O)C(F)(F)F)cc2)nc1-c1ccc2c(c1)CCNC2=O [6-(3-amino-6-(4-(2,2,2-trifluoroacetyl)phenyl)pyrazin-2-yl)-3,4-dihydroisoquinolin-1(2H)-one]
29 | < 0.05 µM | < 0.01 µM | CC(=O)NCc1ccc(-c2cnc(N)c(-c3ccc4c(c3)CCNC4=O)c2)cc1 [N-(4-(6-amino-5-(1-oxo-1,2,3,4-tetrahydroisoquinolin-6-yl)pyridin-3-yl)benzyl)acetamide]
30 | < 0.15 µM | < 0.05 µM | Nc1ncc(-c2ccc(F)cc2)cc1-c1ccc2c(c1)CCNC2=O [6-(2-amino-5-(4-fluorophenyl)pyridin-3-yl)-3,4-dihydroisoquinolin-1(2H)-one]
31 | < 0.05 µM | < 0.01 µM | CCNS(=O)(=O)c1ccc(-c2cnc(N)c(-c3ccc4c(O)ncnc4c3)c2)cc1 [4-(6-amino-5-(4-hydroxyquinazolin-7-yl)pyridin-3-yl)-N-ethylbenzenesulfonamide]
32 | < 0.05 µM | < 0.01 µM | CCN(CC)S(=O)(=O)c1ccc(-c2cnc(N)c(-c3ccc4c(O)ncnc4c3)c2)cc1 [4-(6-amino-5-(4-hydroxyquinazolin-7-yl)pyridin-3-yl)-N,N-diethylbenzenesulfonamide]
